Assay results: article PMC9599816, “Cholesterol Chip for the Study of Cholesterol–Protein Interactions Using SPR” (Biosensors, 2022)

Legend:
[1] = molecular target: T1, hedgehog protein, HhC (C-terminal cholesterol-binding domain) (Drosophila melanogaster, UniProt Q02936, H329A); experiment: SPR, biotinylated cholesterol immobilized on streptavidin chip, […] Langmuir fit
T1 construct: gene hh; HhC autoprocessing mutant, C-terminal fusion to SUMO-HIS8

[2] = molecular target: T2, PTP1B (Homo sapiens, UniProt P18031); experiment: biochemical
T2 construct: gene PTPN1
T2 sequence (P18031 1-321): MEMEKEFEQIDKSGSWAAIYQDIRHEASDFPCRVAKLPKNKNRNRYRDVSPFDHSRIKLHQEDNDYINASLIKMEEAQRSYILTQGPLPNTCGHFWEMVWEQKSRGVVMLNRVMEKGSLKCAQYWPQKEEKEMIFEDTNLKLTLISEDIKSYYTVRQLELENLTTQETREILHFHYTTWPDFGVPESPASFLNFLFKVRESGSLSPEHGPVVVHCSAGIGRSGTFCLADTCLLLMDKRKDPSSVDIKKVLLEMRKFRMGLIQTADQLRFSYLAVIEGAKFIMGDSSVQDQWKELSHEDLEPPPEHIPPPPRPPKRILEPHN

T1 sequence (Q02936 258-471 H329A): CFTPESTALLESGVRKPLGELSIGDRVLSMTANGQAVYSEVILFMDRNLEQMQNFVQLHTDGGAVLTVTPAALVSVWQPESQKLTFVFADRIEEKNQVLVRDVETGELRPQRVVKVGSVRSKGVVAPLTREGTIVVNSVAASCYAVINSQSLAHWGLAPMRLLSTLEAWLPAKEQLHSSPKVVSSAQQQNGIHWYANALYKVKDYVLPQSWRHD

CC(CCC[C@@H](C)[C@H]1CC[C@H]2[C@@H]3CC=C4C[C@@H](O)CC[C@]4(C)[C@H]3CC[C@]12C)c1cn(CCOCCOCCOCCNC(=O)CCCCC2SCC3NC(=O)NC32)nn1 (some centres unmarked) [biotinylated cholesterol]
Kd [1]: ~14 nM
Kd [2]: ~85 nM
